Assay results: patent US20120088827A1 (Profectus Biosciences, Inc., priority 2009, published 2012)

Experiments:
[1] = tested on: IL-6; assay: Inhibition of IL-6 release in LPS-stimulated RAW 264.7 cells; assay type: cell-based; conditions: Mus musculus, RAW264.7; pretreated 2 hours, 1 μg/mL LPS 20-24 hours
Method: RAW 264.7 cells were seeded at 4×10^4 cells per well in complete growth medium in 96 well white TC plates with clear bottoms one day prior to the assay. The next day the cells were washed once and 100 μL fresh growth media was added. Cells were pretreated with 0.5 μL from a 6 point 200× dilution series of the test compounds in DMSO for 2 hours. Following pretreatment with the drugs, the inflammatory response was induced by adding 5 μL of a 20 μg/mL solution of LPS (Sigma). The cells were incubated in the presence of the drugs and 1 μg/mL LPS for another 20-24 hours. Typically after treatment the total DMSO was […] of the culture volume and the final concentrations of the compounds were approximately: 40, 20, 10, 1, 0.2 and 0 μM depending on the MW of each compound. Modified dilution series were prepared as needed to get adequate dose response curves without changing the % DMSO. Samples were run in duplicate or triplicate and included DMSO treated control wells with and without LPS stimulation. Drugs with a known activity such as Parthenolide or DHMEQ were run as experimental controls. After 20-24 hours LPS activation, the media supernatant was collected from the cells and replaced with fresh media. The supernatant samples were cleared by centrifugation at 1,000×g for 5 minutes, transferred to fresh storage plates, and stored frozen at −30° C.
After determining the appropriate supernatant dilutions experimentally, mIL-6 levels in the supernatants were quantified using Quantikine™ mouse IL-6 Immunoassay (R&D Systems) according to the manufacturer's protocol. Approximately 50 μL of the supernatants diluted in Calibrator Diluent were added to 50 μL of Assay Diluent in microplate wells pre-coated with an anti-mouse IL-6 capture antibody. Controls included a calibrated positive IL-6 control sample, non-specific binding (NSB) wells containing Calibrator Diluent but no IL-6, and a recombinant mouse IL-6 standard dilution series (10-1000 pg/mL). The plates were incubated at room temperature for 2 hours with shaking and then washed 5 times with 400 μL 1× Wash Buffer. Approximately 100 μL of an HRP-conjugated anti-mouse IL-6 antibody was added to each well to detect IL-6 captured on the plate. The plates were incubated at room temperature for 2 hours and then washed 5 times with 400 μl 1× Wash Buffer. Equal volumes of Color Reagents A and B were mixed and 100 μL of this HRP Substrate Solution was added to each well on the plate. The blue color was allowed to develop for 30 minutes and then the reaction was stopped using 100 μL of Stop Solution yielding a yellow color. Absorbance at 450 nm with a reference wavelength subtracted at 595 nm was recorded using a Becton-Dickinson DTX 880 Multimode Detector.
The concentration of mIL-6 in the unknown samples was determined from a curve-fit of the mIL-6 standard absorbance data and multiplying by the dilution factor. The maximum activity achieved in the absence of the inhibitor (DMSO+LPS treated wells) was arbitrarily given a value of 100%; likewise the minimum activity in the absence of the stimulant (no LPS) was assigned a value of 0% Inhibition of the amount of mIL-6 cytokine released in the drug treated wells was calculated relative to the maximum activation in the DMSO+LPS treated control wells (i.e., % inhibition=100−(drug+LPS treated)/(DMSO+LPS treated)). Dose response curves were used to determine the effective concentration to inhibit 50% of the mIL-6 cytokine released (IC50) by means of a SigmaPlot macro which fits a sigmoidal dose-response curve to the (log 10) μM concentration versus % inhibition. […] This technique yields an objective value for the IC50 provided that 50% inhibition was approached at the concentrations tested.

[2] = biological target: T1, RelB (Homo sapiens, UniProt Q01201); assay: TransAM NF-κB Family DNA Binding ELISA, RelB
T1 sequence (Q01201 1-579): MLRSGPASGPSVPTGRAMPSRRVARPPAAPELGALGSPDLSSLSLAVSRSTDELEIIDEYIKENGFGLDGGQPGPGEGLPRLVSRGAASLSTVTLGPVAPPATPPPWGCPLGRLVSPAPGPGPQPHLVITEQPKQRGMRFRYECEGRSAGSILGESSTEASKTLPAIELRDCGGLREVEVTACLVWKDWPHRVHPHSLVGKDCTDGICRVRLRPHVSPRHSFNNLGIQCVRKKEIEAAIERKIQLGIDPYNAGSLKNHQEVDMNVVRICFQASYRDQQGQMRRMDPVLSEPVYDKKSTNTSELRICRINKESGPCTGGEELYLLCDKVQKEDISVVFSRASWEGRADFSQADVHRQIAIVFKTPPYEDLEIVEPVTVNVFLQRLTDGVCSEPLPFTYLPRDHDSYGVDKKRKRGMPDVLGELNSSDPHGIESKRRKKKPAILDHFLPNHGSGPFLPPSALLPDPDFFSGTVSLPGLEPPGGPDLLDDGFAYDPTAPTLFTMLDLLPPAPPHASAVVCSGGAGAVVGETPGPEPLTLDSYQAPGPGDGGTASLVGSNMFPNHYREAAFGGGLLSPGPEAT
Method: (§1) The binding activity of NF-κB heterodimer or homodimer subunits from activated nuclear extracts or purified recombinant NF-κB proteins exposed to the drug compounds was evaluated using the TransAM NF-κB Family binding ELISA (Active Motif). Approximately 3-5 μg of nuclear extracts from TNFα activated Hela or Raji cells (Active Motif) or 20 ng of purified recombinant proteins (p65 and p50 from Active Motif, p52 from Santa Cruz) were incubated for 1 hour at room temperature with 20 μL drug compounds diluted in Complete Lysis buffer without DTT. Treated samples were then transferred to 30 μL Complete Binding Buffer (with DTT) in microplate wells pre-coated with the NF-κB consensus oligonucleotide. […] The plate was incubated for 1 hour at room temperature with gentle shaking and then washed 3 times with 200 μL 1× Wash Buffer. NF-κB p65, p50, p52, RelB, or c-Rel subunits bound to the plate were detected with 100 μL of the primary antibody (diluted 1:1000 in 1× Antibody Buffer) specific for that subunit. The plate was incubated for 1 hour at room temperature and then washed 3 times with 200 μL 1× Wash Buffer. Next, 100 μL of a HRP conjugated goat anti-rabbit antibody (diluted 1:1,000 in 1× Antibody Buffer) was added to each well. The plate was incubated for 1 hour at room temperature and then washed 4 times with 200 μL 1× Wash Buffer. 100 μL of room temperature Developing Solution was added to each well. The reaction was allowed to develop for 2-10 minutes until a medium dark blue color developed (depending on the subunit activity in the lot of extract or lot of recombinant protein used) and then the reaction was stopped with 100 μL Stop Solution yielding a yellow color. Absorbance was recorded using a Becton-Dickinson DTX 880 Multimode Detector at 450 nm with a reference wavelength subtracted at 620 nm.

[3] = biological target: T2, NF-κB p65 (Homo sapiens, UniProt Q04206); assay: TransAM NF-κB Family DNA Binding ELISA, p65; conditions: binding to NF-κB consensus oligonucleotide; read-out: p65 binding IC50
T2 construct: purchased Active Motif
T2 sequence (Q04206 whole entry): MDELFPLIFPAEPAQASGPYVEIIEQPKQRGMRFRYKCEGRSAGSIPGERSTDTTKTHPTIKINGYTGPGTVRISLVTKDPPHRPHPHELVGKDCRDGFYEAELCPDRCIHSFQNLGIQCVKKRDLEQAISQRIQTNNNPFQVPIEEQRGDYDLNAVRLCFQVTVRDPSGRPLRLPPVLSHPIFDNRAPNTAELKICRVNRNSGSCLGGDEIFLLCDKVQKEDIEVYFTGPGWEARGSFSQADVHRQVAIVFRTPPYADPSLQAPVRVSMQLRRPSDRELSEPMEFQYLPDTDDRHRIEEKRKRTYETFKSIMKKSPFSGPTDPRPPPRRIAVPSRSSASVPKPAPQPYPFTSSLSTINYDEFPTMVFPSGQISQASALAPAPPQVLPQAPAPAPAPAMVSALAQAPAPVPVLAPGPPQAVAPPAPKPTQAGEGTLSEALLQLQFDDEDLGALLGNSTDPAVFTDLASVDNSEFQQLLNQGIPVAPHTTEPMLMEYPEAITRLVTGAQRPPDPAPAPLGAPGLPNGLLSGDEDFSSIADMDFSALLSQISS
Method: as §1

Compound	EC50 [1]	inhibition at 5 µM [2]	IC50 [3]
CC(C)OC(=O)OC1C(NC(=O)c2ccccc2O)=CC(=O)C2OC21 (racemic) [Example 8]	1.5 µM	2%	336 µM
O=C(CC1CCCCC1)Oc1ccccc1C(=O)NC1=CC(=O)C2OC2C1O (racemic) [Example 3, (±)-2-(2-hydroxy-5-oxo-7-oxabicyclo[4.1.0]hept-3-en-3-ylcarbamoyl)phenyl 2-cyclohexylacetate]	0.72 µM	3%	93 µM
CCCCC(CC)C(=O)Oc1ccccc1C(=O)NC1=CC(=O)C2OC2C1O (racemic) [Example 5, (±)-2-(2-hydroxy-5-oxo-7-oxabicyclo[4.1.0]hept-3-en-3-ylcarbamoyl)phenyl 2-ethylhexanoate]	0.44 µM	5%	> 430 µM
CCCC(C)C(=O)Oc1ccccc1C(=O)NC1=CC(=O)C2OC2C1O (racemic) [Example 4, (±)-2-(2-hydroxy-5-oxo-7-oxabicyclo[4.1.0]hept-3-en-3-ylcarbamoyl)phenyl 2-methylpentanoate]	0.45 µM	5%	149 µM
CC(C)CC(=O)Oc1ccccc1C(=O)NC1=CC(=O)C2OC2C1O (racemic) [Example 1, (±)-2-(2-hydroxy-5-oxo-7-oxabicyclo[4.1.0]hept-3-en-3-ylcarbamoyl)phenyl 3-methylbutanoate]	0.5 µM	0%	214 µM
CC(C)OC(=O)Oc1ccccc1C(=O)NC1=CC(=O)C2OC2C1O (racemic) [Example 7, (±)-2-(2-hydroxy-5-oxo-7-oxabicyclo[4.1.0]hept-3-en-3-ylcarbamoyl)phenyl isopropyl carbonate]	1.7 µM	0%	> 480 µM
CC(C)(C)CC(=O)Oc1ccccc1C(=O)NC1=CC(=O)C2OC2C1O (racemic) [Example 6, (±)-2-(2-hydroxy-5-oxo-7-oxabicyclo[4.1.0]hept-3-en-3-ylcarbamoyl)phenyl 3,3-dimethylbutanoate]	0.35 µM	3%	67 µM
CC(C)OC(=O)Oc1ccccc1C(=O)NC1=CC(=O)C2OC2C1OC(=O)OC(C)C (racemic) [Example 2, (±)-3-(2-isopropoxycarbonyloxy-benzoylamino)-5-oxo-7-oxa-bicyclo[4.1.0]hept-3-en-2-yl ester isopropyl ester]	1.3 µM	2%	> 376 µM
